Results taken from US8653242B2, “Therapeutic antibodies against flagellated Pseudomonas aeruginosa” (priority 2010, dated 2014).
Values after ≈ are worked out from the molar mass of the structure shown. Like-named read-outs stand apart in the source and are kept apart here.

B1: LST-007: human IgM monoclonal antibody of U.S. Pat. No. 4,834,976, specific to P. aeruginosa flagellin type B (antibody, V domains shown)
VH: MDWTWRVFFLLAVAPGAHSQVRLVQSGTEVKKPGASVRVSCKASGYTFSNYYMYWVRQAPGQGLEWMAMINPSGGSTRYAQKFQGRVTMTRDTSTSTVYMELSSLRSEDTAVYYCARADSGSYFGYWGQGTLVTVSS
VL: MRVPAQLLGLLLLWLPGARCDIQLTQSPSFLSASVGDRVPITCRASQGISTHLAWYQQKPGKAPKLLIYAASTLQSGVPSRFSGSGSGTEFTLTISSLQPEDSATYYCQQLKSYPLTFGGGTKVEIKR
B2: LST-002: mouse monoclonal antibody of U.S. Pat. No. 4,834,976, specific to P. aeruginosa flagellin type B (antibody, V domains shown)
VH: EVMLVESGGGLVKPGGSLKLSCAASGFTFSTFTMSWVRQTPEKRLECVATINGGGGNTYYPDSVKGRFTISRDNAKNNLYLQMSSLRSEDTAFYFCSRLYGIYAMDYWGQGTSVTVSS
VL: MKSHTQVFVYMLLWLSGVEGDIVMTQSHIFMSTSVGDRVSITCKASQDVGSAVAWYQQKPGQSPKVLIYWTSTRHTGVPDRFAGSGSGTEFTLTISNVQSEDLADYFCQQYSSYPLTFGAGTKLELKR

What was measured:
[1] = system: Ka02 multi-drug resistant P. Aeruginosa strain; assay: Antibiogram of Ka02 (Vitek MIC); assay type: cell-based; set-up: MIC site #2: unit not given here; settings: for Vitek (sensitive/resistant call): calls of the two sites; for MIC: Pseudomonas aeruginosa; as to Final (sensitive/resistant call): key: S = antibiotic sensitive; R = antibiotic resistance
[2] = system: Ka02 (MDR P. aeruginosa); assay: Mouse model of pneumonia driven by Ka02; assay type: in vivo, C57 Black mice; settings: for Animal survival at day 3: Ka02 lung infection, treatment from 1 hr post-infection; for Animal survival at day 3 / survivors at day 3: unchanged at day 9; for survivors at day 3: survivors/animals in group
Experimental: Sixty-one (61) male Adult C57 Black mice (25-30 g, Harlan Nossan, Milan, Italy) were housed in a controlled environment in cages with filter tops in specific pathogen-free conditions. They were briefly anesthetized with inhaled sevorane (Abbot Laboratories) in an oxygenated chamber and placed in a supine position with their heads elevated approximately 30°. Ka02 bacterial inoculums (10^6 cfu's in 50 μl of lactated Ringer's solution) were instilled slowly into the left lung of each animal using a gavage needle.
Mice were randomly divided into 3 experimental treatment groups as follows:
a) Saline-Treated (n=20): saline administered i.v. 1 hr after infection followed by one further i.p. administration at 5 hr post-infection; b) LST-002-Treated (n=21): LST-002 given i.v. 1 hr after infection at a dose of 20 mg/kg followed by one further i.p. administration at 5 hr post-infection at a dose of 15 mg/kg; c) Positive control-Imipenem-Treated (n=20): “Tienam” (Merck, Sharpe and Dohme)] (active ingredient, imipenem, a carbapenem antibiotic) given i.p. 1 hr after infection at a dose of 25 mg/kg followed by further i.p. administrations at 25 mg/kg at time points of 5 hr, 24 hr, 29 hr, 48 hr and 53 hr following infection.
Survival was monitored for all groups every 12 hrs until day 9 post-infection and data depicted in Kaplan-Meier curves (FIG. 18). […] Survival at day 9 was unchanged from survival data observed at day 3, i.e. LST-002 was 240% more efficacious in increasing survival in mice with pneumonia than a currently accepted treatment protocol and increased survival by 700% as compared with untreated mice.

[3] = system: P. Aeruginosa strains harboring flagellin type B (Pa01, Ka01, Ka02, Ka03, Ka04, 25619, NCTC 10662); assay: Whole-bacteria binding ELISA, flagellin type B strains; settings: LST-007 supernatant, LST-008 0.5 μg/ml
Experimental: P. aeruginosa laboratory strains PAK (flagellin type A) and Pa01 (flagellin type B) were grown overnight, diluted to an OD of 0.3 and washed with PBS. Fifty μl bacteria were then plated onto ELISA plates pre-coated with 50 μl poly-L-lysine (1 μg/ml in PBS) which were blocked with PBS-10% fetal calf serum (FCS). Following overnight incubation with bacteria at 4° C., plates were washed with 0.9% saline-0.05% Tween-20 and incubated with 1:2 dilutions of LST-001, LST-002, LST-007 supernatant or purified LST-003 (˜2 μg/ml) for 2 hrs at room temperature. Following washing, secondary goat anti-mouse (LST-001, LST-002) or goat anti-human detecting antibodies (LST-003, LST-007) were added and coloration generated following the addition of TMB substrate and plates read for absorbance (405 nm) following addition of 10% H2SO4.

[4] = system: P. Aeruginosa flagellin type A strain 27853; settings: ELISA, LST-007 supernatant, LST-008 0.5 μg/ml
[5] = system: MDR P. aeruginosa strain Ka02; assay: "Sandwich" motility assay, Ka02; assay type: cell-based; settings: LST-002 0.3-80 μg/ml, even at very low concentrations
Experimental: Using an alternative in-vitro motility technology, the effects of LST-002 on motility of a MDR P. aeruginosa (PA) strain (Ka02) was performed. In 10 cm plastic culture dishes, a 6 ml underlayer of 0.6% agar in LB was poured and allowed to solidify. During this period, 6 ml of LB was aliquoted into separate tubes to which LST-002 was added at final concentrations 80, 20, 5, 1.25, 0.3 and 0 μg/ml. Thereafter, 10 μA of bacterial culture (containing ˜20-100 cfu) was added followed by 6 mls of 0.6% agar in LB. This ˜12 ml solution was poured onto the solidified agar under-layer. Following solidification, a final upper layer comprising of 6 mls 0.6% agar in LB was added. Plates were transferred to an incubator at 37° C. for 18-22 hr to allow bacterial growth and swarming (i.e. motility) and the diameter of the bacterial colonies measured.

[6] = system: laboratory strain Pa01; assay: "Sandwich" motility assay, Pa01; assay type: cell-based, P. aeruginosa; settings: LST-002 0.3-80 μg/ml, even at very low concentrations
[7] = system: MDR PA strain Ka02; assay: Neutropenic mouse thigh muscle infection model; assay type: in vivo, CD-1 mice
Experimental: Female CD-1 mice weighing 23-27 g (3-5 weeks in age) were rendered neutropenic by split i.p. administration of cyclophosphamide at doses of 150 mg/kg and 100 mg/kg on days 0 and +3. On day 4, 50 μl of freshly-grown Ka02 (2×10^7 cfu's per ml) was injected at a depth of 5 mm into the right thigh muscle (“ipsilateral”) whereas an equivalent volume of saline was injected into the left thigh muscle (“contralateral”). Over an ensuing 3 day period (days 5-7, i.e. 24, 48 and 72 hr following Ka02 administration), the surface areas of the infected thigh muscle lesions were measured with calipers in both ipsilateral and contralateral muscles. Ratios of surface areas of infection lesions of ipsilateral muscles divided by contralateral muscle lesions were calculated with ratios >1 indicative of Ka02. This calculation is called the Ratio-Infection Index (RII). In some mice, LST-002 was administered i.v. at 20 mg/kg, 60 min after administration of Ka02. Further dosing of LST-002 (10 mg/kg) was given i.p. at time points+5 hr, +24 hr and +48 hr after infection.

[8] = single i.v. injection at 10 mg/kg; preliminary
[9] = read-out: MIC site #1, heading: MIC site #1, Ka02, Vitek, testing site #1
[10] = read-out: MIC site #2, heading: MIC site #2, Ka02, Vitek, testing site #2
[11] = ipsilateral/contralateral lesion area, 20 mg/kg i.v. +60 min, 10 mg/kg i.p. +5, +24, +48 hr

Molecule	Final (sensitive/resistant call) ([1]; Ka02)	Vitek (sensitive/resistant call) ([1]; Ka02)	other results
NCC[C@H](O)C(=O)N[C@@H]1C[C@H](N)[C@@H](O[C@H]2O[C@H](CN)[C@@H](O)[C@H](O)[C@H]2O)[C@H](O)[C@H]1O[C@H]1O[C@H](CO)[C@@H](O)[C@H](N)[C@H]1O [Amikacin]	S	S/S	–
C[C@H]1[C@H](NC(=O)/C(=N\OC(C)(C)C(=O)O)c2csc(N)n2)C(=O)N1S(=O)(=O)O [Aztreonam]	R	R	–
CO/N=C(\C(=O)N[C@@H]1C(=O)N2C(C(=O)[O-])=C(C[N+]3(C)CCCC3)CS[C@H]12)c1csc(N)n1 [Cefepime]	R	R/R	–
CO/N=C(\C(=O)N[C@@H]1C(=O)N2C(C(=O)O)=C(COC(C)=O)CS[C@H]12)c1csc(N)n1 [Cefotaxime]	R	R/R	–
CC(C)(O/N=C(\C(=O)N[C@@H]1C(=O)N2C(C(=O)[O-])=C(C[n+]3ccccc3)CS[C@H]12)c1csc(N)n1)C(=O)O [Ceftazidime]	S-R	S/R	MIC [1, 9]: 8 µg/mL (≈ 14.6 µM)
O=C(N[C@H](CO)[C@H](O)c1ccc([N+](=O)[O-])cc1)C(Cl)Cl [Chloramphenicol]	R	R	–
O=C(O)c1cn(C2CC2)c2cc(N3CCNCC3)c(F)cc2c1=O [Ciprofloxacin]	R	R/R	MIC [1, 9]: 4 µg/mL (≈ 12.1 µM); MIC [1, 10]: ≥ 4 µg/mL
C[C@@H](O)[C@H]1C(=O)N2C(C(=O)O)=C(SCCN=CN)C[C@H]12 [Imipenem]	R	R	Animal survival at day 3 [2]: 30%; survivors at day 3 [2]: 6/20
C[C@H]1COc2c(N3CCN(C)CC3)c(F)cc3c(=O)c(C(=O)O)cn1c23 [Levofloxacin]	R	R	MIC [1, 10]: ≥ 8 µg/mL
C[C@@H](O)[C@H]1C(=O)N2C(C(=O)O)=C(S[C@@H]3CN[C@H](C(=O)N(C)C)C3)[C@H](C)[C@H]12 [Meropenem]	R	R/R	–
CN(C)c1ccc(O)c2c1C[C@H]1C[C@H]3[C@H](N(C)C)C(O)=C(C(N)=O)C(=O)[C@@]3(O)C(O)=C1C2=O [Minocycline]	R	–	–
CCN1CCN(C(=O)N[C@@H](C(=O)N[C@@H]2C(=O)N3[C@@H]2SC(C)(C)[C@@H]3C(=O)O)c2ccccc2)C(=O)C1=O [Piperacillin]	R	R	–
CN(C)c1cc(NC(=O)CNC(C)(C)C)c(O)c2c1C[C@H]1C[C@H]3[C@H](N(C)C)C(O)=C(C(N)=O)C(=O)[C@@]3(O)C(O)=C1C2=O [Tigecycline]	R	R	MIC ([1]; read-out: MIC site #2): ≥ 8 µg/mL
NC[C@H]1O[C@H](O[C@H]2[C@H](O)[C@@H](O[C@H]3O[C@H](CO)[C@@H](O)[C@H](N)[C@H]3O)[C@H](N)C[C@@H]2N)[C@H](N)C[C@@H]1O [Tobramycin]	R	R/I	MIC [1, 10]: 8 µg/mL (≈ 17.1 µM)
Amoxicillin/Calvulanic acid	R	R	MIC site #2 ([1]; Ka02, Vitek, testing site #2): 32
Ampicillin/Sulbactam	R	R/R	–
Colistin	S	S	MIC site #2 ([1]; Ka02, Vitek, testing site #2): 2
Gentamicin	–	R/S	MIC site #2 ([1]; Ka02, Vitek, testing site #2): 4
Piperacillin/Tazobactam	R	R/R	–
Ticracillin/CA	R	R	–
Trimethoprim-Sulfamethoxazole	R	R/R	–
B1	–	–	binding to whole bacteria harboring flagellin type B [3]: specifically binds to all seven P. Aeruginosa bacteria strains tested; binding to whole bacteria harboring flagellin type A [4]: not flagellin type A
B2	–	–	size of bacterial colonies (motility) [5]: significant reduction in the size of bacterial colonies; size of bacterial colonies (motility) [6]: significant reduction in the size of bacterial colonies; Animal survival at day 3 [2]: 71.4%; increased survival as compared with untreated mice ([2]; day 3 / day 9 survival): 700%; more efficacious in increasing survival than currently accepted treatment protocol (imipenem) ([2]; day 3 / day 9 survival): 240%; survivors at day 3 [2]: 15/21; Ratio-Infection Index (RII) day 5 [7, 11]: 1.09; Ratio-Infection Index (RII) day 7 [7, 11]: 0.96; infection lesions in thigh muscle infected with Ka02 ([7]; neutropenic mice): totally prevented infection lesions; early plasma concentration [8]: ~200 µg/mL
